Values quoted from earlier work in patent publication US20220080043A1, “OIL/SURFACTANT MIXTURES FOR SELF-EMULSIFICATION” (priority 2019, published 2022).

Settings: Table 2; surfactants used

Substance: sorbitan monooleate [Span80]
- HLB: 4.3
